Assays:
SK-MEL-5 = conditions: SK-MEL-5, Melanoma
SW-620 = conditions: SW-620, Colon
OVCAR-8 = conditions: OVCAR-8, Ovarian
SK-MEL-28 = conditions: SK-MEL-28, Melanoma
MALME-3M = conditions: Melanoma
COLO 205 = conditions: COLO 205, Colon
K-562 = conditions: K-562, Leukemia
786-0 = conditions: 786-0, Renal
SF-295 = conditions: SF-295, CNS
U251 = conditions: U251, CNS
PC-3 = conditions: PC-3, Prostate
SNB-19 = type: cell-based; conditions: SNB-19, CNS
RPMI-8226 = conditions: RPMI-8226, Leukemia
SNB-75 = conditions: SNB-75, CNS
MCF7 = conditions: MCF7, Breast
KM12 = conditions: KM12, Colon
HCT-116 = type: cell-based; conditions: HCT-116, Colon
TK-10 = type: cell-based; conditions: TK-10, Renal
UO-31 = conditions: UO-31, Renal
[1] = DPPH radical scavenging assay; conditions: 25 µM test compound, 0.1 mM DPPH, acetonitrile, 30 min
Procedure: A stable free radical DPPH (2,2-Diphenyl-1-picrylhydrazyl) assay was employed to test the antioxidant activity of all the synthesized compounds. Concisely, 25 µM of the test compounds were dissolved in acetonitrile and combined with 0.1 mM of DPPH (in acetonitrile) in a 1:2 ratio (80 µL and 160 µL). Then, the mixture was left undisturbed in the dark for 30 min at room temperature. After 30 min, the absorbance of the solutions was instantly measured at 517 nm using a Varioskan Multiplate Reader (Thermo Fisher Scientific, Mumbai, India). Ascorbic acid (in acetonitrile) was used as the positive control, and andrographolide and isoandrogapholide (in acetonitrile) were used as the standards. The following equation was used to determine the DPPH radical scavenging activity:% Radical scavenging activity = (Ac − As)/Ac × 100 where Ac = the absorbance of the blank (DPPH solution), and As = the absorbance of the test samples

SF-539 = conditions: SF-539, CNS
SF-268 = conditions: SF-268, CNS
M14 = type: cell-based; conditions: M14, Melanoma
MOLT-4 = conditions: MOLT-4, Leukemia
[2] = read-out: 50% lethal concentration (LC50), Renal
[3] = read-out: 50% lethal concentration (LC50)

**Q.** With `C=C1CCC2C3(C)COC(c4cn(-c5ccccc5)nc4-c4cccc(Br)c4)OC3CCC2(C)C1CC=C1C(=O)OCC1O` (stereo not shown) [1e] as the compound, how does the GI50 (ACHN; Renal) read?
**A.** Its GI50 is 1.61 µM.

**Q.** What about the Total growth inhibition (TGI) (ACHN; Renal) of the same compound?
**A.** Its Total growth inhibition (TGI) is 16.8 µM.

**Q.** And the CC50 (ACHN; [2])?
**A.** The CC50 was 5.51 µM.

**Q.** What about the GI50 (SK-MEL-5) of the same compound?
**A.** Its GI50 is 1.54 µM.

**Q.** And the Total growth inhibition (TGI) (SK-MEL-5)?
**A.** The Total growth inhibition (TGI) was 2.88 µM.

**Q.** And the CC50 (SK-MEL-5; [3])?
**A.** Its CC50 is 5.39 µM.

**Q.** And the GI50 (T-47D; Breast)?
**A.** The GI50 was 2.29 µM.

**Q.** What about the Total growth inhibition (TGI) (T-47D; Breast) of the same compound?
**A.** Its Total growth inhibition (TGI) is 7.26 µM.

**Q.** And the CC50 (T-47D; read-out: 50% lethal concentration (LC50), Breast)?
**A.** The CC50 was greater than 100 µM.

**Q.** And the GI50 (HL-60(TB); Leukemia)?
**A.** The GI50 was 1.17 µM.

**Q.** And the Total growth inhibition (TGI) (HL-60(TB); Leukemia)?
**A.** Its Total growth inhibition (TGI) is 5.17 µM.

**Q.** And the CC50 (HL-60(TB); read-out: 50% lethal concentration (LC50), Leukemia)?
**A.** The CC50 was greater than 100 µM.

**Q.** What about the GI50 (SW-620) of the same compound?
**A.** The GI50 was 1.72 µM.

**Q.** And the Total growth inhibition (TGI) (SW-620)?
**A.** The Total growth inhibition (TGI) was 3.64 µM.

**Q.** And the GI50 (OVCAR-8)?
**A.** The GI50 was 1.76 µM.

**Q.** What about the Total growth inhibition (TGI) (OVCAR-8) of the same compound?
**A.** The Total growth inhibition (TGI) was 4.22 µM.

**Q.** What about the CC50 (OVCAR-8; [3]) of the same compound?
**A.** Its CC50 is greater than 100 µM.

**Q.** And the GI50 (SK-MEL-28)?
**A.** The GI50 was 1.73 µM.

**Q.** What about the Total growth inhibition (TGI) (SK-MEL-28) of the same compound?
**A.** The Total growth inhibition (TGI) was 3.28 µM.

**Q.** What about the CC50 (SK-MEL-28; [3]) of the same compound?
**A.** The CC50 was 6.2 µM.

**Q.** And the GI50 (MALME-3M)?
**A.** The GI50 was 1.87 µM.

**Q.** And the Total growth inhibition (TGI) (MALME-3M)?
**A.** Its Total growth inhibition (TGI) is 3.45 µM.

**Q.** And the GI50 (COLO 205)?
**A.** Its GI50 is 2.09 µM.

**Q.** And the Total growth inhibition (TGI) (COLO 205)?
**A.** Its Total growth inhibition (TGI) is 4.36 µM.

**Q.** What about the GI50 (K-562) of the same compound?
**A.** Its GI50 is 2.89 µM.

**Q.** And the Total growth inhibition (TGI) (K-562)?
**A.** Its Total growth inhibition (TGI) is greater than 100 µM.

**Q.** And the CC50 (K-562; [3])?
**A.** The CC50 was greater than 100 µM.

**Q.** And the GI50 (786-0)?
**A.** Its GI50 is 2.59 µM.

**Q.** What about the CC50 (786-0; [3]) of the same compound?
**A.** The CC50 was greater than 100 µM.

**Q.** And the GI50 (SF-295)?
**A.** The GI50 was 1.36 µM.

**Q.** And the Total growth inhibition (TGI) (SF-295)?
**A.** The Total growth inhibition (TGI) was 2.68 µM.

**Q.** And the CC50 (SF-295; [3])?
**A.** Its CC50 is 5.3 µM.

**Q.** And the GI50 (U251)?
**A.** The GI50 was 1.69 µM.

**Q.** What about the Total growth inhibition (TGI) (U251) of the same compound?
**A.** Its Total growth inhibition (TGI) is 3.13 µM.

**Q.** And the GI50 (PC-3)?
**A.** Its GI50 is 2.29 µM.

**Q.** And the CC50 (PC-3; [3])?
**A.** The CC50 was greater than 100 µM.

**Q.** What about the GI50 (SNB-19) of the same compound?
**A.** Its GI50 is 2.17 µM.

**Q.** And the Total growth inhibition (TGI) (SNB-19)?
**A.** Its Total growth inhibition (TGI) is 5.24 µM.

**Q.** What about the CC50 (SNB-19; [3]) of the same compound?
**A.** Its CC50 is 17.2 µM.

**Q.** And the GI50 (RPMI-8226)?
**A.** The GI50 was 2.75 µM.

**Q.** And the Total growth inhibition (TGI) (RPMI-8226)?
**A.** The Total growth inhibition (TGI) was greater than 100 µM.

**Q.** What about the CC50 (RPMI-8226; [3]) of the same compound?
**A.** Its CC50 is greater than 100 µM.

**Q.** And the GI50 (SNB-75)?
**A.** The GI50 was 1.57 µM.

**Q.** And the Total growth inhibition (TGI) (SNB-75)?
**A.** Its Total growth inhibition (TGI) is 5.32 µM.

**Q.** What about the CC50 (SNB-75; [3]) of the same compound?
**A.** Its CC50 is 22.9 µM.

**Q.** And the GI50 (MCF7)?
**A.** Its GI50 is 1.77 µM.

**Q.** And the Total growth inhibition (TGI) (MCF7)?
**A.** The Total growth inhibition (TGI) was greater than 100 µM.

**Q.** What about the CC50 (MCF7; [3]) of the same compound?
**A.** The CC50 was greater than 100 µM.

**Q.** What about the GI50 (KM12) of the same compound?
**A.** Its GI50 is 1.83 µM.

**Q.** What about the Total growth inhibition (TGI) (KM12) of the same compound?
**A.** The Total growth inhibition (TGI) was 3.58 µM.

**Q.** What about the GI50 (HCT-116) of the same compound?
**A.** Its GI50 is 1.24 µM.

**Q.** And the Total growth inhibition (TGI) (HCT-116)?
**A.** Its Total growth inhibition (TGI) is 2.75 µM.

**Q.** And the GI50 (TK-10)?
**A.** The GI50 was 2.12 µM.

**Q.** What about the Total growth inhibition (TGI) (TK-10) of the same compound?
**A.** Its Total growth inhibition (TGI) is 3.58 µM.

**Q.** And the CC50 (TK-10; [3])?
**A.** Its CC50 is 40.4 µM.

**Q.** What about the GI50 (UO-31) of the same compound?
**A.** The GI50 was 1.45 µM.

**Q.** What about the Total growth inhibition (TGI) (UO-31) of the same compound?
**A.** Its Total growth inhibition (TGI) is 5.34 µM.

**Q.** And the CC50 (UO-31; [3])?
**A.** The CC50 was 6.83 µM.

**Q.** And the GI50 (MDA-MB-231; MDA-MB-231, Breast)?
**A.** The GI50 was 1.68 µM.

**Q.** And the Total growth inhibition (TGI) (MDA-MB-231; MDA-MB-231/ATCC, Breast)?
**A.** Its Total growth inhibition (TGI) is 3.23 µM.

**Q.** And the CC50 (MDA-MB-231; read-out: 50% lethal concentration (LC50), MDA-MB-231/ATCC, Breast)?
**A.** The CC50 was 6.23 µM.

**Q.** And the “% DPPH radical scavenging activity” value [1]?
**A.** The value was 58.75%.

**Q.** What about the GI50 (SF-539) of the same compound?
**A.** Its GI50 is 1.78 µM.

**Q.** What about the Total growth inhibition (TGI) (SF-539) of the same compound?
**A.** The Total growth inhibition (TGI) was 3.2 µM.

**Q.** What about the CC50 (SF-539; [3]) of the same compound?
**A.** The CC50 was 5.74 µM.

**Q.** What about the GI50 (SF-268) of the same compound?
**A.** The GI50 was 2.02 µM.

**Q.** And the Total growth inhibition (TGI) (SF-268)?
**A.** The Total growth inhibition (TGI) was 4.26 µM.

**Q.** What about the CC50 (SF-268; [3]) of the same compound?
**A.** Its CC50 is 8.98 µM.

**Q.** And the GI50 (M14)?
**A.** The GI50 was 1.86 µM.

**Q.** And the Total growth inhibition (TGI) (M14)?
**A.** The Total growth inhibition (TGI) was 4.12 µM.

**Q.** What about the GI50 (SN12C; Renal) of the same compound?
**A.** Its GI50 is 1.57 µM.

**Q.** What about the Total growth inhibition (TGI) (SN12C; Renal) of the same compound?
**A.** The Total growth inhibition (TGI) was 2.55 µM.

**Q.** And the CC50 (SN12C; [2])?
**A.** The CC50 was 8.12 µM.

**Q.** What about the GI50 (MOLT-4) of the same compound?
**A.** The GI50 was 0.91 µM.

**Q.** And the Total growth inhibition (TGI) (MOLT-4)?
**A.** Its Total growth inhibition (TGI) is 4.24 µM.

**Q.** What about the CC50 (MOLT-4; [3]) of the same compound?
**A.** Its CC50 is greater than 100 µM.

— paper PMC12298351, “Novel 3,19-(N-Phenyl-3-(4-fluorophenyl)-pyrazole) Acetal of Andrographolide Promotes Cell Cycle Arrest and Apoptosis in MDA-MB-231 Breast Cancer Cells” (Pharmaceuticals, 2025)
